Source: US20210214405A1, “PEPTIDE, METHOD AND COMPOSITION FOR MELANIN POLYMERIZATION AND HAIR DARKENING” (Renorigin Innovation Institute Co., Ltd., priority 2020, published 2021)

Assay: The polymerization of melanin (melanin pellet, absorbance at 400 nm; light microscope)
Format: biochemical
Conditions: 0.025 mg/ml melanin treated with 50 μM peptide for 24 h
Method: 0.025 mg/ml melanin was treated with 50 μM peptide for 24 h. Data are represented as the means±SD from three independent experiments. ***p<0.001.
0.025 mg/ml melanin were treated with 50 μM peptides for 24 h, and then centrifuged at 10,000 g for 5 min. The supernatant was removed from the tube, leaving only the melanin pellet. The polymerization of melanin was quantified after boiling in 1 M NaOH for 1 hour and the absorbance was measured spectrophotometrically at 400 nm.

Row | Sequence | melanin polymerization
1 | APRKNVRWCTISQ [SEQ ID NO: 2] | did not show effects on melanin polymerization
2 | RMKKLGAPSI [SEQ ID NO: 15] | did not show effects on melanin polymerization
3 | CTISQPEWFKCRR [SEQ ID NO: 3] | did not show effects on melanin polymerization
